Measured values: ChEMBL document CHEMBL1201862, “PubChem BioAssay data set” (2004)
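Each compound was tested at five concentrations against cells in 96-well plates for 48 hours. GI50: concentration for 50% inhibition of growth.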 Active and inactive are the calls of the source. Cut-off read from the data, not from the text of the source: active = GI50 up to about 1.1 µM and inactive = higher.

How the values were obtained:
Experiment in all cases: growth of human tumour cells (NCI), 48 h
[1] = system: A498
[2] = system: BT-549
[3] = system: HCC 2998
[4] = system: HCT-15
[5] = system: HOP-62
[6] = system: HOP-92
[7] = system: HT-29
[8] = system: KM12
[9] = system: LOX IMVI
[10] = system: MDA-MB-231
[11] = system: MDA-N
[12] = system: Malme-3M
[13] = system: NCI-H23
[14] = system: NCI-H460
[15] = system: OVCAR-5
[16] = system: SK-MEL-2
[17] = system: SN12C
[18] = system: SR
[19] = system: TK-10
[20] = system: U-251

Row | SMILES | GI50 [1] | GI50 [2] | GI50 [3] | GI50 [4] [µM] | GI50 [5] | GI50 [6] | GI50 [7] | GI50 [8] | GI50 [9] | GI50 [10] | GI50 [11] | GI50 [12] | GI50 [13] | GI50 [14] | GI50 [15] | GI50 [16] | GI50 [17] | GI50 [18] | GI50 [19] | GI50 [20]
1 | COC1=C(Br)C(O)C2(C=C1Br)CC(C(=O)NCCCCNC(=O)C1=NOC3(C=C(Br)C(OC)=C(Br)C3O)C1)=NO2 (stereo not given) | 31 µM (inactive) | 33.6 µM (inactive) | 52.1 µM (inactive) | 49 | 30.5 µM (inactive) | 26.2 µM (inactive) | 15.9 µM (inactive) | 12.4 µM (inactive) | 17 µM (inactive) | 22.3 µM (inactive) | 16.7 µM (inactive) | 16.4 µM (inactive) | 40.5 µM (inactive) | 26.4 µM (inactive) | 50.4 µM (inactive) | 23.7 µM (inactive) | 25.6 µM (inactive) | 13.8 µM (inactive) | 65.3 µM (inactive) | 25.8 µM (inactive)
2 | COc1ccccc1C1C2=C(COC2=O)OC(C)(C)Oc2cc3c(cc21)OCO3 (stereo not given) | 3.06 µM (inactive) | > 10 µM (inactive) | 7.29 µM (inactive) | 3.23 | 4.02 µM (inactive) | 8.65 µM (inactive) | 3.47 µM (inactive) | 1.11 µM (active) | 5.16 µM (inactive) | 2.86 µM (inactive) | 0.65 µM (active) | 3.89 µM (inactive) | 3.89 µM (inactive) | 3.6 µM (inactive) | 13.4 µM (inactive) | 4.06 µM (inactive) | 5.48 µM (inactive) | 3.44 µM (inactive) | 1.69 µM (inactive) | 3.85 µM (inactive)
3 | COc1ccc2c(c1)-c1nc(=O)n(CCCN(C)C)c3ccc([N+](=O)[O-])c(c13)N2 | 3.39 µM (inactive) | 3.85 µM (inactive) | 1.06 µM (active) | 0.897 | 0.675 µM (active) | 1.57 µM (inactive) | 0.473 µM (active) | 0.873 µM (active) | 0.838 µM (active) | 0.561 µM (active) | 3.22 µM (inactive) | 0.752 µM (active) | 1.1 µM (active) | 0.435 µM (active) | 1.15 µM (inactive) | 12.2 µM (inactive) | 0.752 µM (active) | 0.406 µM (active) | 1.09 µM (active) | 1.43 µM (inactive)
4 | Nc1nc(I)nc2c1ncn2C1OC(COS(N)(=O)=O)C(O)C1O (stereo not given) | < 0.01 µM (active) | < 0.0108 µM (active) | < 0.0127 µM (active) | 0.0176 | 0.0218 µM (active) | < 0.0142 µM (active) | < 0.0106 µM (active) | < 0.01 µM (active) | < 0.0116 µM (active) | < 0.01 µM (active) | < 0.01 µM (active) | < 0.01 µM (active) | < 0.01 µM (active) | 0.0126 µM (active) | < 0.01 µM (active) | < 0.01 µM (active) | < 0.01 µM (active) | < 0.01 µM (active) | 0.0102 µM (active) | < 0.01 µM (active)
5 | O=C1Nc2c(Cl)cc(Cl)cc2C1=O | 23.2 µM (inactive) | 18 µM (inactive) | 34.7 µM (inactive) | 20.6 | 18.5 µM (inactive) | 24.1 µM (inactive) | 27.4 µM (inactive) | 30.5 µM (inactive) | 14.4 µM (inactive) | 21.2 µM (inactive) | 8.99 µM (inactive) | 1.94 µM (inactive) | 23.5 µM (inactive) | 21 µM (inactive) | 20.7 µM (inactive) | 13.9 µM (inactive) | 17.9 µM (inactive) | 12.2 µM (inactive) | 95.9 µM (inactive) | 21.2 µM (inactive)
6 | BrCC(Br)(c1ccccc1)c1ccccc1-c1cc(-c2ccccc2)cc(-c2ccccc2)n1 (stereo not given) | 4.48 µM (inactive) | 2.51 µM (inactive) | 2.05 µM (inactive) | 15.2 | 3.55 µM (inactive) | 2.48 µM (inactive) | 2.25 µM (inactive) | 3.13 µM (inactive) | 2.29 µM (inactive) | 3.15 µM (inactive) | 3.01 µM (inactive) | 3.16 µM (inactive) | 3.94 µM (inactive) | 3.38 µM (inactive) | 3.67 µM (inactive) | 1.89 µM (inactive) | 12.3 µM (inactive) | 3.89 µM (inactive) | 5.82 µM (inactive) | 1.48 µM (inactive)
7 | O=C(CC(O)(C(F)(F)F)C(F)(F)F)c1cc(CC(=O)C(O)(C(F)(F)F)C(F)(F)F)cc(CC(=O)C(O)(C(F)(F)F)C(F)(F)F)c1 | 1.88 µM (inactive) | 1.71 µM (inactive) | 1.54 µM (inactive) | 0.971 | 1.46 µM (inactive) | 0.984 µM (active) | 1.4 µM (inactive) | 0.512 µM (active) | 1.14 µM (inactive) | 1.64 µM (inactive) | 2.64 µM (inactive) | 2.01 µM (inactive) | 0.867 µM (active) | 0.454 µM (active) | 3.01 µM (inactive) | 1.75 µM (inactive) | 1.41 µM (inactive) | 6.78 µM (inactive) | 2.4 µM (inactive) | 1.54 µM (inactive)
8 | NS(=O)(=O)c1cc(Cl)c(NC(=S)NC(=O)Nc2ccc(Cl)c(Cl)c2)c(Cl)c1 | 26.7 µM (inactive) | 55.2 µM (inactive) | 59.2 µM (inactive) | 40.9 | > 100 µM (inactive) | 55.7 µM (inactive) | 46.8 µM (inactive) | 34.7 µM (inactive) | 40.3 µM (inactive) | 50.1 µM (inactive) | 33.6 µM (inactive) | 68.1 µM (inactive) | 31.6 µM (inactive) | 30.2 µM (inactive) | 80.5 µM (inactive) | 25.5 µM (inactive) | 36.8 µM (inactive) | 36.2 µM (inactive) | 47.4 µM (inactive) | 37.2 µM (inactive)
9 | Cc1nc2c(=O)n(C)c(=O)n(C)c2o1 | > 100 µM (inactive) | > 100 µM (inactive) | > 100 µM (inactive) | > 100 | > 100 µM (inactive) | > 100 µM (inactive) | > 100 µM (inactive) | > 100 µM (inactive) | > 100 µM (inactive) | > 100 µM (inactive) | > 100 µM (inactive) | > 100 µM (inactive) | > 100 µM (inactive) | > 100 µM (inactive) | > 100 µM (inactive) | > 100 µM (inactive) | > 100 µM (inactive) | > 100 µM (inactive) | > 100 µM (inactive) | > 100 µM (inactive)
10 | N#CC12C(=O)N=C(N)C1(C#N)C(c1ccco1)NC1=C2CCCC1 (stereo not given) | > 100 µM (inactive) | > 100 µM (inactive) | > 100 µM (inactive) | > 100 | > 100 µM (inactive) | > 100 µM (inactive) | > 100 µM (inactive) | > 100 µM (inactive) | > 100 µM (inactive) | > 100 µM (inactive) | > 100 µM (inactive) | > 100 µM (inactive) | > 100 µM (inactive) | > 100 µM (inactive) | > 100 µM (inactive) | > 100 µM (inactive) | > 100 µM (inactive) | > 100 µM (inactive) | > 100 µM (inactive) | > 100 µM (inactive)
